Source: patent publication US20240425966A1, “GAS-ASSISTED COCRYSTAL DE-SUBLIMATION” (THE REGENTS OF THE UNIVERSITY OF MICHIGAN, priority 2021, published 2024)

How the values were obtained:
[1] = heating; reference (27); cited from earlier work
[2] = Differential scanning calorimetry (DSC), enthalpy of melting; format: physicochemical; conditions: 40-400° C., 10° C. per minute, initial heating curve
Protocol: (§1) To determine optimal process temperature, differential scanning calorimetry (DSC) and thermogravimetric analysis (TGA) were performed on the pure components, as well as on the cocrystal, shown in FIG. 2. A TA instruments DSC Q200 was used with a 40-400° C. heating range and 10° C. per minute heating rate. Only initial heating curves were collected and analyzed, without a cooling and secondary heating step. The initial melting peak temperature and enthalpy of melting values for each sample was determined using Universal Analysis software from TA instruments. A TA Instruments TGA Q500 was used with a 25-400° C. heating range and a 10° C. per minute heating rate. Powder was placed into a 5 mm diameter aluminum sample pan centered in a platinum hang pan. Enthalpies of sublimation were determined by plotting the logarithm of mass loss rate (−dm/dt) versus inverse temperature (1000/T).

[3] = Thermogravimetric analysis (TGA), enthalpy of sublimation from Arrhenius plot of mass loss rate; format: physicochemical; conditions: for Sublimation ΔHsub: 25-400° C., 10° C. per minute, slope of log mass loss rate versus 1000/T; for Sublimation Tlow: lower temperature of sublimation range; for Sublimation Thigh: upper temperature of sublimation range
Protocol: as §1

[4] = Thermal stability (decomposition temperature); format: physicochemical; conditions: heating
Excerpt: Thermal analysis provides a good basis to determine the process window for successful cocrystal de-sublimation. The target temperature for the process is preferably in a region where sublimed API and conformer readily remain in the vapor phase. Too low, and the less volatile compound may de-sublimate within the heated tube, altering the ratio of API to conformer reaching a cooled surface (26). Moreover, decreasing temperature reduces sublimation rate and thus restricts the amount of material that can be processed. The upper temperature limit of the process is largely dictated by the thermal stability of each component. For example, CBZ may begin to decompose appreciably before reaching 180° C., limiting the heating temperature to well below its melting temperature. […] On the other hand, IND is stable up to 248° C., well above its melting temperature (27).

Row | Melting ΔHmelt [2] [kcal/mol] | Sublimation ΔHsub [3] [kcal/mol] | Sublimation Tlow [3] [°C] | Sublimation Thigh [3] [°C] | temperature before which decomposition may begin appreciably [4] [°C] | SMILES | stable up to (temperature) [1] [°C]
1 | 8.01 | 27.29 | 200 | 320 | – | COc1ccc2c(c1)c(CC(=O)O)c(C)n2C(=O)c1ccc(Cl)cc1 [IND, indomethacin] | 248
2 | 6.33 | 48.59 | 220 | 280 | < 180 | NC(=O)N1c2ccccc2C=Cc2ccccc21 [CBZ, carbamazepine] | –
3 | 8.68 | 25.57 | 200 | 290 | – | O=C1NS(=O)(=O)c2ccccc21 [SAC, saccharine] | –
4 | 7.89 | 23.1 | 140 | 230 | – | O=C(O)CCC(=O)O [SUC, succinic acid] | –
